Patent US20050245489A1, “Chromene-containing compounds with anti-tubulin and vascular targeting activity” (priority 2004, published 2005)
≈ marks a conversion by molar mass, not a printed value.

Tests used:
[1] = test system: DU-145 (prostate) cancer cell line; assay: In vitro growth inhibition (SRB), DU-145; format: cell-based, human; conditions: 48 hours; for GI50: Homo sapiens
Method: (§1) Newly prepared compounds were evaluated for cytotoxic activity against a variety of cell lines derived from human tumors using an assay system similar to the National Cancer Institute procedure previously described (Monks et al, J. Natl. Cancer Inst., 1991). Briefly, the cell suspensions, diluted according to the particular cell type and the expected target cell density (5,000-40,000 cells per well based on cell growth characteristics), were added by pipet (100 μl) to 96-well microtiter plates. Inoculates were allowed a preincubation time of 24-28 hours at 37° C. for stabilization. Incubation with the inhibitor compounds lasted for 48 hours in 5% CO2 atmosphere and 100% humidity. Determination of cell growth was performed by in situ fixation of cells, followed by staining with a protein-binding dye sulforhodamine B (SRB), which binds to the basic amino acids of cellular macromolecules. The solubilized stain was measured spectrophotometrically.
(§2) Several compounds were evaluated for cytotoxic activity against […] P388 leukemia cell lines. The effective dose or ED50 value (defined as the effective dosage required to inhibit 50% of cell growth) was measured. These and additional compounds were evaluated in terms of growth inhibitory activity against several other human cancer cell lines including: central nervous system (“CNS”, SF-268), pancreas (BXPC-3), non-small cell lung cancer (“lung-NSC”, NCI-H460), breast (MCF-7), colon (KM20L2), ovarian (OVCAR-3), and prostate (DU-145). The growth inhibition GI50 (defined as the dosage required to inhibit tumor cell growth by 50%) is listed for each cell line.

purified tubulin = assay: In vitro inhibition of tubulin polymerization; format: biochemical; conditions: purified bovine brain tubulin 1.5 mg/ml, 15 min preincubation at 37° C., GTP-induced, 350 nm
Method: IC50 values for tubulin polymerization were determined according to a previously described procedure (Bai et al., Cancer Research, 1996). Purified tubulin is obtained from bovine brain cells as previously described (Hamel and Lin, Biochemistry, 1984). Various amounts of inhibitor were preincubated for 15 minutes at 37° C. with purified tubulin. After the incubation period, the reaction was cooled and GTP was added to induce tubulin polymerization. Polymerization was then monitored in a Gilford spectrophotometer at 350 nm. The final reaction mixtures (0.25 ml) contained 1.5 mg/ml tubulin, 0.6 mg/ml microtubule-associated proteins (MAPs), 0.5 mM GTP, […], 4% DMSO and 0.1M 4-morpholineethanesulfonate buffer (MES, pH 6.4). IC50 is the amount of inhibitor needed to inhibit tubulin polymerization 50% with respect to the amount of […] that occurs in the absence of inhibitor.

[2] = test system: NCI-H460 (lung-NSC) cancer cell line; assay: In vitro growth inhibition (SRB), NCI-H460; format: cell-based, human; conditions: 48 hours; for GI50: Homo sapiens
Method: as §1, §2

[3] = test system: KM20L2 (colon) cancer cell line; assay: In vitro growth inhibition (SRB), KM20L2; format: cell-based, human; conditions: for GI50: Homo sapiens, KM-20L2, 48 hours
Method: as §1, §2

P388 leukemia cell lines = assay: In vitro cytotoxicity (SRB) against P388 leukemia cell line; format: cell-based, mouse; conditions: 48 hours incubation
Method: as §1
Several compounds were evaluated for cytotoxic activity against […] P388 leukemia cell lines. […] These and additional compounds were evaluated in terms of growth inhibitory activity against several other human cancer cell lines including: central nervous system (“CNS”, SF-268), pancreas (BXPC-3), non-small cell lung cancer (“lung-NSC”, NCI-H460), breast (MCF-7), colon (KM20L2), ovarian (OVCAR-3), and prostate (DU-145). […]

[4] = test system: SF-268 (CNS) cancer cell line; assay: In vitro growth inhibition (SRB), SF-268; format: cell-based, human; conditions: 48 hours; for GI50: Homo sapiens
Method: as §1, §2

[5] = test system: MCF-7 (breast) cancer cell line; assay: In vitro growth inhibition (SRB), MCF-7; format: cell-based, human; conditions: for GI50: Homo sapiens, MCF7, 48 hours
Method: as §1, §2

[6] = test system: BXPC-3 (pancreas) cancer cell line; assay: In vitro growth inhibition (SRB), BXPC-3; format: cell-based, human; conditions: 48 hours; for GI50: Homo sapiens
Method: as §1, §2

[7] = test system: MHEC-5T hemangioendothelioma tumor; assay: Inhibition of tumor blood flow, Fluorescent Bead Assay; format: in vivo, SCID mice; conditions: 24 hours post-treatment, vessel area per tumor tissue area as percentage of control
Method: The antivascular effects of the chromene phosphate prodrug were assessed in tumor-bearing mice using a Fluorescent Bead Assay. A MHEC-5T hemangioendothelioma tumor model was established by subcutaneous injection of 0.5×10^6 cultured transformed cell murine myocardial vascular endothelial cell line (“MHEC5-T”) cells into the right flank of Fox Chase CB-17 Severe Combined Immunodeficient (“SCID”) mice. […] At 24 hours post-treatment, mice were injected intravenously with 0.25 ml of diluted FluoSphere beads (1:6 in physiological saline) in the tail vein, sacrificed after 3 minutes, and tumor was excised for cryosectioning. Tumor cryosections at a thickness of 8 um were directly examined using quantitative fluorescent microscopy. Blood vessels were indicated by blue fluorescence from injected beads. For quantification, image analysis of 3 sections from three tumors treated in each group were examined and vascular shutdown was expressed as vessel area (mm^2) per tumor tissue area (mm^2) as a percentage of the control (“% VAPM”).

GI50 [1] [µg/mL]	IC50 (purified tubulin) [nM]	GI50 [2] [µg/mL]	GI50 [3] [µg/mL]	GI50 [4] [µg/mL]	GI50 [5] [µg/mL]	GI50 [6] [µg/mL]	GI50 for Cell Line DU-145 [1] [µg/mL]	GI50 for Cell Line NCI-H460 [2] [µg/mL]	GI50 for Cell Line KM20L2 ([3]; 48 hours) [µg/mL]	GI50 for Cell Line SF-268 [4] [µg/mL]	GI50 for Cell Line MCF-7 ([5]; 48 hours) [µg/mL]	GI50 for Cell Line BXPC-3 [6] [µg/mL]	Molecule	ED50 for P-388 Cell Line (P388 leukemia cell lines) [µg/mL]	% VAPM at 10 mg/kg dose ([7]; 10 mg/kg single i.p. dose) [%]	% VAPM at 100 mg/kg dose ([7]; 100 mg/kg single i.p. dose) [%]
0.16 (≈ 0.43 µM)	1000 to 4000	0.32 (≈ 0.859 µM)	2.3 (≈ 6.18 µM)	0.45 (≈ 1.21 µM)	0.069 (≈ 0.185 µM)	0.27 (≈ 0.725 µM)							COc1cc2c(cc1O)C=C(C(=O)c1cc(OC)c(OC)c(OC)c1)CO2 [Compound 9, 3-(3′, 4′, 5′-Trimethoxybenzoyl)-6-hydroxy-7-methoxy-2H-chromene]	0.25		
0.049 (≈ 0.132 µM)		0.46 (≈ 1.24 µM)	3.2 (≈ 8.59 µM)	0.022 (≈ 0.0591 µM)	0.0055 (≈ 0.0148 µM)	3.5 (≈ 9.4 µM)							COc1ccc2c(c1O)OCC(C(=O)c1cc(OC)c(OC)c(OC)c1)=C2 [Compound 5, 3-(3′,4′,5′-Trimethoxybezoyl)-7-methoxy-8-hydroxy-2H-chromene]			
0.26 (≈ 0.73 µM)		0.3 (≈ 0.842 µM)	0.47 (≈ 1.32 µM)	0.32 (≈ 0.898 µM)	0.3 (≈ 0.842 µM)	0.27 (≈ 0.758 µM)							COc1ccc2c(c1)OCC(C(=O)c1cc(OC)c(OC)c(OC)c1)=C2 [Compound 8, 3-(3′, 4′, 5′-Trimethoxybenzoyl)-7-methoxy-2H-chromene]			
							0.18	0.14	3.5	0.034	0.056	0.44	3-(3′,4′,5′-Trimethoxybezoyl)-7-methoxy-2H-chromene-phosphate salt [Compound 7]	0.173	57	33
